Laboratory results: US11214567B2, “Small molecule inhibitors of MYC and uses thereof” (The Regents of the University of Michigan, priority 2017, dated 2022)
Entries after “also recorded” stand apart in the source; their conditions may differ.

Key:
OVCAR8 = experiment: MTT assay (cytotoxicity), OVCAR8; format: cell-based; conditions: Homo sapiens, OVCAR-8, 72 h, drug concentration causing a 50% decrease in cell population
Description: (§1) The evaluation of cytotoxicity was based on the reduction of MTT dye by viable cells to give purple formazan products, which can be measured spectrophotometrically at 540 nm. One hundred eighty microliters of cancer cells were seeded into 96-well plates at 3,500-4,000 cells/well and incubated at 37° C. overnight before the indicated treatments. After 72 h, 20 μl of MTT solution (3 mg/ml) was added and incubated again for 3 h. After removal of media and solubilization of formazan crystals in 150 μL of DMSO, the absorbance was measured at 570 nm. Percentage of cell growth inhibition was expressed as 1-[(A−B)/(C−B)]×100% (A, B and C were the absorbance values from experimental, blank and control cells, respectively).
(§2) KJA derivatives were tested by the MTT assay against five human cancer cell lines including ovarian cancer cell lines (OVCAR-8, NCI/ADR-RES and SKOV3) and pancreatic cancer cell lines (MIA PaCa-2 and Pac-1). […] It is important to note that the NCI/ADR-RES cell line shares a large number of karyotypic abnormalities with OVCAR-8 but expresses high levels of MDR1 (multidrug resistance protein 1)/P-glycoprotein (see, e.g., Xu, S.; et al., Proceedings of the National Academy of Sciences 2012, 109, 16348-16353), resulting in resistance to multiple anticancer drugs in clinical use, including paclitaxel and doxorubicin.

NCI/ADR-RES = experiment: MTT assay (cytotoxicity), NCI/ADR-RES; format: cell-based, human
Description: as §1, §2

GLIPR1 = experiment: Western blotting of GLIPR1 protein levels; format: cell-based, human; conditions: NCI/ADR-RES; Western blot
TXNIP = experiment: Western blotting of TXNIP protein levels; format: cell-based, human; conditions: NCI/ADR-RES; Western blot
NCI/ADR-RES cell line = experiment: Bru-seq, changes in transcription; format: cell-based, human
Excerpt: Furthermore, to better understand the potential mechanism of KJA03, we performed Bru-seq to examine the global changes in transcription in NCI/ADR-RES cells.

tumor = experiment: Tumor size, body weight and gross toxicity in treated mice; format: in vivo
Excerpt: Error bars indicate Mean±SEM. and *p<0.05.

In the case of `Cc1ccc(-c2noc(-c3ccccc3-n3c(-c4ccc(C)cc4)noc3=O)n2)cc1` [KJA03, 3-(P-tolyl)-4-(2-(3-(p-tolyl)-1,2,4-oxadiazol-5-yl)phenyl)-1,2,4-oxadiazol-5(4H)-one], the IC50 (OVCAR8) is reported as 140 ± 50 nM, the IC50 (NCI/ADR-RES; Homo sapiens, NCI/ADR-RES, MTT, 72 h, drug concentration causing a 50% decrease in cell population) is reported as 200 ± 60 nM and the “growth of NCI/ADR-RES” value (NCI/ADR-RES; MTT assay after 72 h treatment) is reported as “inhibited growth”. For the same compound, the GLIPR1 protein levels (GLIPR1) was “gradually upregulated; also recorded: up-regulated”, the TXNIP protein levels (TXNIP) was “downregulated; also recorded: down-regulated dose-dependently” and the “expression of LAMC2, TAGLN, CSRP1, SLC4A4, LAMB3, and LPP genes” value (NCI/ADR-RES cell line) was “significantly increase”. The “Fold-Change ACTC1” value (NCI/ADR-RES cell line; NCI/ADR-RES, 0.4 uM, 4 hours) was 2.238 fold, the “Fold-Change APOBEC3” value (NCI/ADR-RES cell line; NCI/ADR-RES, 0.4 uM, 4 hours) was 0.309 fold and the “Fold-Change ARMCX1” value (NCI/ADR-RES cell line; NCI/ADR-RES, 0.4 uM, 4 hours) was 0.417 fold. For the same compound, the “Fold-Change ATP5I” value (NCI/ADR-RES cell line; NCI/ADR-RES, 0.4 uM, 4 hours) was 0.496 fold, the “Fold-Change AURKAIP1” value (NCI/ADR-RES cell line; NCI/ADR-RES, 0.4 uM, 4 hours) was 0.413 fold and the “Fold-Change BHLHE40” value (NCI/ADR-RES cell line; NCI/ADR-RES, 0.4 uM, 4 hours) was 2.683 fold. For the same compound, the “Fold-Change C19orf33” value (NCI/ADR-RES cell line; NCI/ADR-RES, 0.4 uM, 4 hours) was 0.378 fold, the “Fold-Change CNO” value (NCI/ADR-RES cell line; NCI/ADR-RES, 0.4 uM, 4 hours) was 0.395 fold and the “Fold-Change CSRP1” value (NCI/ADR-RES cell line; NCI/ADR-RES, 0.4 uM, 4 hours) was 2.335 fold. The “Fold-Change EGR1” value (NCI/ADR-RES cell line; NCI/ADR-RES, 0.4 uM, 4 hours) was 0.198 fold, the “Fold-Change EXOSC4” value (NCI/ADR-RES cell line; NCI/ADR-RES, 0.4 uM, 4 hours) was 0.493 fold and the “Fold-Change FJX1” value (NCI/ADR-RES cell line; NCI/ADR-RES, 0.4 uM, 4 hours) was 0.469 fold. The “Fold-Change GALNT4” value (NCI/ADR-RES cell line; NCI/ADR-RES, 0.4 uM, 4 hours) was 0.356 fold, the “Fold-Change GLIPR1” value (NCI/ADR-RES cell line; NCI/ADR-RES, 0.4 uM, 4 hours) was 2.574 fold and the “Fold-Change HIST1H2A1” value (NCI/ADR-RES cell line; NCI/ADR-RES, 0.4 uM, 4 hours) was 0.483 fold. For the same compound, the “Fold-Change HIST1H2AB” value (NCI/ADR-RES cell line; NCI/ADR-RES, 0.4 uM, 4 hours) was 0.362 fold, the “Fold-Change HIST1H2AE” value (NCI/ADR-RES cell line; NCI/ADR-RES, 0.4 uM, 4 hours) was 0.471 fold and the “Fold-Change HIST1H2AG” value (NCI/ADR-RES cell line; NCI/ADR-RES, 0.4 uM, 4 hours) was 0.45 fold. For the same compound, the “Fold-Change HIST1H2BL” value (NCI/ADR-RES cell line; NCI/ADR-RES, 0.4 uM, 4 hours) was 0.441 fold, the “Fold-Change HIST1H2BM” value (NCI/ADR-RES cell line; NCI/ADR-RES, 0.4 uM, 4 hours) was 0.193 fold and the “Fold-Change HIST1H2BN” value (NCI/ADR-RES cell line; NCI/ADR-RES, 0.4 uM, 4 hours) was 0.378 fold. For the same compound, the “Fold-Change HIST1H3B” value (NCI/ADR-RES cell line; NCI/ADR-RES, 0.4 uM, 4 hours) was 0.432 fold, the “Fold-Change HIST1H3F” value (NCI/ADR-RES cell line; NCI/ADR-RES, 0.4 uM, 4 hours) was 0.322 fold and the “Fold-Change HIST1H3G” value (NCI/ADR-RES cell line; NCI/ADR-RES, 0.4 uM, 4 hours) was 0.496 fold. The “Fold-Change HIST1H3H” value (NCI/ADR-RES cell line; NCI/ADR-RES, 0.4 uM, 4 hours) was 0.136 fold, the “Fold-Change HIST1H4C” value (NCI/ADR-RES cell line; NCI/ADR-RES, 0.4 uM, 4 hours) was 0.338 fold and the “Fold-Change HIST1H4H” value (NCI/ADR-RES cell line; NCI/ADR-RES, 0.4 uM, 4 hours) was 0.324 fold. For the same compound, the “Fold-Change HIST1H4L” value (NCI/ADR-RES cell line; NCI/ADR-RES, 0.4 uM, 4 hours) was 0.416 fold, the “Fold-Change HIST2H2AC” value (NCI/ADR-RES cell line; NCI/ADR-RES, 0.4 uM, 4 hours) was 0.29 fold and the “Fold-Change HIST3H2BB” value (NCI/ADR-RES cell line; NCI/ADR-RES, 0.4 uM, 4 hours) was 0.446 fold. For the same compound, the “Fold-Change HIST4H4” value (NCI/ADR-RES cell line; NCI/ADR-RES, 0.4 uM, 4 hours) was 0.483 fold, the “Fold-Change HOXA1” value (NCI/ADR-RES cell line; NCI/ADR-RES, 0.4 uM, 4 hours) was 0.491 fold and the “Fold-Change HOXC” value (NCI/ADR-RES cell line; NCI/ADR-RES, 0.4 uM, 4 hours) was 0.477 fold. For the same compound, the “Fold-Change HOXC4” value (NCI/ADR-RES cell line; NCI/ADR-RES, 0.4 uM, 4 hours) was 0.4 fold, the “Fold-Change HSD17B10” value (NCI/ADR-RES cell line; NCI/ADR-RES, 0.4 uM, 4 hours) was 0.415 fold and the “Fold-Change ILE” value (NCI/ADR-RES cell line; NCI/ADR-RES, 0.4 uM, 4 hours) was 2.485 fold. The “Fold-Change INGX” value (NCI/ADR-RES cell line; NCI/ADR-RES, 0.4 uM, 4 hours) was 3.089 fold, the “Fold-Change LAMB3” value (NCI/ADR-RES cell line; NCI/ADR-RES, 0.4 uM, 4 hours) was 2.089 fold and the “Fold-Change LAMC2” value (NCI/ADR-RES cell line; NCI/ADR-RES, 0.4 uM, 4 hours) was 3.217 fold. For the same compound, the “Fold-Change LINC00312” value (NCI/ADR-RES cell line; NCI/ADR-RES, 0.4 uM, 4 hours) was 2.165 fold, the “Fold-Change LINC00493” value (NCI/ADR-RES cell line; NCI/ADR-RES, 0.4 uM, 4 hours) was 0.452 fold and the “Fold-Change LOC100630918” value (NCI/ADR-RES cell line; NCI/ADR-RES, 0.4 uM, 4 hours) was 0.494 fold. For the same compound, the “Fold-Change LPP” value (NCI/ADR-RES cell line; NCI/ADR-RES, 0.4 uM, 4 hours) was 2.032 fold, the “Fold-Change LSMD1” value (NCI/ADR-RES cell line; NCI/ADR-RES, 0.4 uM, 4 hours) was 2.261 fold and the “Fold-Change MRPL34” value (NCI/ADR-RES cell line; NCI/ADR-RES, 0.4 uM, 4 hours) was 0.416 fold. The “Fold-Change MRPL41” value (NCI/ADR-RES cell line; NCI/ADR-RES, 0.4 uM, 4 hours) was 0.496 fold, the “Fold-Change MRPS26” value (NCI/ADR-RES cell line; NCI/ADR-RES, 0.4 uM, 4 hours) was 0.432 fold and the “Fold-Change MYADM” value (NCI/ADR-RES cell line; NCI/ADR-RES, 0.4 uM, 4 hours) was 2.114 fold. For the same compound, the “Fold-Change PA2G4P4” value (NCI/ADR-RES cell line; NCI/ADR-RES, 0.4 uM, 4 hours) was 0.463 fold, the “Fold-Change RPL23AP32” value (NCI/ADR-RES cell line; NCI/ADR-RES, 0.4 uM, 4 hours) was 2.141 fold and the “Fold-Change RPS19BP1” value (NCI/ADR-RES cell line; NCI/ADR-RES, 0.4 uM, 4 hours) was 0.49 fold. For the same compound, the “Fold-Change SCARNA2” value (NCI/ADR-RES cell line; NCI/ADR-RES, 0.4 uM, 4 hours) was 0.401 fold, the “Fold-Change SCARNA10” value (NCI/ADR-RES cell line; NCI/ADR-RES, 0.4 uM, 4 hours) was 0.487 fold and the “Fold-Change SCARNA17” value (NCI/ADR-RES cell line; NCI/ADR-RES, 0.4 uM, 4 hours) was 0.496 fold. For the same compound, the “Fold-Change SDPR” value (NCI/ADR-RES cell line; NCI/ADR-RES, 0.4 uM, 4 hours) was 0.497 fold, the “Fold-Change SFTA1P” value (NCI/ADR-RES cell line; NCI/ADR-RES, 0.4 uM, 4 hours) was 0.387 fold and the “Fold-Change SLC4A4” value (NCI/ADR-RES cell line; NCI/ADR-RES, 0.4 uM, 4 hours) was 2.18 fold. For the same compound, the “Fold-Change SNRNP25” value (NCI/ADR-RES cell line; NCI/ADR-RES, 0.4 uM, 4 hours) was 0.463 fold, the “Fold-Change SSSCA1” value (NCI/ADR-RES cell line; NCI/ADR-RES, 0.4 uM, 4 hours) was 0.386 fold and the “Fold-Change TAGLN” value (NCI/ADR-RES cell line; NCI/ADR-RES, 0.4 uM, 4 hours) was 2.648 fold. The “Fold-Change TCEAL1” value (NCI/ADR-RES cell line; NCI/ADR-RES, 0.4 uM, 4 hours) was 0.455 fold, the “Fold-Change TMEM133” value (NCI/ADR-RES cell line; NCI/ADR-RES, 0.4 uM, 4 hours) was 2.846 fold and the “Fold-Change TNFAIP3” value (NCI/ADR-RES cell line; NCI/ADR-RES, 0.4 uM, 4 hours) was 2.192 fold. For the same compound, the “Fold-Change TPBG” value (NCI/ADR-RES cell line; NCI/ADR-RES, 0.4 uM, 4 hours) was 0.374 fold, the “Fold-Change TUBB2B” value (NCI/ADR-RES cell line; NCI/ADR-RES, 0.4 uM, 4 hours) was 0.461 fold and the “Fold-Change TWIST1” value (NCI/ADR-RES cell line; NCI/ADR-RES, 0.4 uM, 4 hours) was 0.319 fold. The “Fold-Change TXNIP” value (NCI/ADR-RES cell line; NCI/ADR-RES, 0.4 uM, 4 hours) was 0.281 fold, the tumor sizes (tumor; mice, 10 mg/kg, *p<0.05) was “tumor sizes were reduced” and the “gross toxicity such as weakness, weight loss or lethargy” value (tumor; mouse, in vivo) was “no symptoms of gross toxicity”.
